Measured values: patent publication US6737383B1, “Herbicidal oxadiazolidines” (priority 1999, dated 2004)

Tests used:
corn = experiment: Test B pre/postemergence corn; type: in vivo, Zea mays
Outline: (§1)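 Test chemicals in a non-phytotoxic solvent mixture with surfactant were sprayed preemergence onto planted seeds and postemergence onto plants 2 to 18 cm tall (1- to 4-leaf stage). After twelve to sixteen days in a greenhouse, injury was visually rated against untreated controls from 0 (no effect) to 10 (complete control).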

rice = experiment: Test B flood test rice; type: in vivo, Oryza sativa; details: Pre-emergence
Outline: (§2)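 Read-out is a visual response score from 0 (no effect) to 10 (complete control), assigned by comparison with untreated controls. Treatment was applied at the 2-leaf stage, and plants stayed in the greenhouse for twelve to sixteen days before scoring.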

smallflower flatsedge = experiment: Test B flood test smallflower flatsedge; type: in vivo, Cyperus difformis; details: Pre-emergence
Outline: as §2

cocklebur = experiment: Test B pre/postemergence cocklebur; type: in vivo, Xanthium strumarium
Outline: as §1

velvetleaf = experiment: Test B pre/postemergence velvetleaf; type: in vivo, Abutilon theophrasti
Outline: as §1

rape = experiment: Test B pre/postemergence rape; type: in vivo, Brassica napus
Outline: as §1

pigweed = experiment: Test B pre/postemergence pigweed; type: in vivo, Amaranthus retroflexus
Outline: as §1

blackgrass = experiment: Test B pre/postemergence blackgrass; type: in vivo, Alopecurus myosuroides
Outline: as §1

surinam grass = experiment: Test B pre/postemergence surinam grass; type: in vivo, Brachiaria decumbens
Outline: as §1

giant foxtail = experiment: Test B pre/postemergence giant foxtail; type: in vivo, Setaria faberii
Outline: as §1

morningglory = experiment: Test B pre/postemergence morningglory; type: in vivo, Ipomoea hederacea
Outline: as §1

duck salad = experiment: Test B flood test duck salad; type: in vivo, Heteranthera limosa; details: Pre-emergence
Outline: as §2

sugar beet = experiment: Test B pre/postemergence sugar beet; type: in vivo, Beta vulgaris
Outline: as §1

purple nutsedge = experiment: Test B pre/postemergence purple nutsedge; type: in vivo, Cyperus rotundus
Outline: as §1

crabgrass = experiment: Test B pre/postemergence crabgrass; type: in vivo, Digitaria sanguinalis
Outline: as §1

wheat = experiment: Test B pre/postemergence wheat; type: in vivo, Triticum aestivum
Outline: as §1

[1] = Postemergence, Rate 125 g/ha, scale 0 to 10, 0 is no effect, 10 is complete control
[2] = Postemergence, Rate 250 g/ha, scale 0 to 10, 0 is no effect, 10 is complete control
[3] = Postemergence, Rate 1000 g/ha, scale 0 to 10 (0 no effect, 10 complete control)
[4] = Preemergence, Rate 250 g/ha, scale of 0 to 10 where 0 is no effect and 10 is complete control
[5] = Preemergence, Rate 500 g/ha, scale of 0 to 10 where 0 is no effect and 10 is complete control
[6] = Rate 500 g/ha, Postemergence, scale 0 to 10, 0 no effect, 10 complete control
[7] = Rate 1000 g/ha, Preemergence, scale 0 to 10 (0 no effect, 10 complete control)
[8] = Rate 1000 g/ha, scale 0 to 10 (0 no effect, 10 complete control)
[9] = Rate 125 g/ha, flood test species, scale 0 to 10 where 0 is no effect and 10 is complete control
[10] = Rate 250 g/ha, flood-test species, scale 0 to 10, 0 is no effect, 10 is complete control
[11] = Rate 500 g/ha, flood test species, scale 0 to 10 (0 no effect, 10 complete control)

CCOC(=O)C(C)N(C(=O)n1oc(=O)n(C)c1=O)c1ccc(F)cc1 (stereo not shown) [Compound 365]
Plant response rating, Corn (corn; [1]): 0
Plant response rating, Corn (corn; [2]): 0
Corn plant response rating (corn; [3]): 0
Corn plant response rating (0 to 10 scale) (corn; Preemergence, Rate 125 g/ha): 0
Corn plant response rating (corn; [4]): 0
Corn plant response rating (corn; [5]): 0
Plant response rating, Corn (corn; [6]): 0
Plant response rating, Corn (corn; [7]): 0
Rice plant response rating (rice; [8]): 0
Rice plant response rating (rice; [9]): 0
Rice plant response rating (rice; [10]): 0
Rice plant response rating (rice; [11]): 0
S. Flatsedge plant response rating (smallflower flatsedge; [8]): 0
S. Flatsedge plant response rating (smallflower flatsedge; [9]): 0
S. Flatsedge plant response rating (smallflower flatsedge; [10]): 0
S. Flatsedge plant response rating (smallflower flatsedge; [11]): 0
Plant response rating, Cocklebur (cocklebur; [1]): 0
Plant response rating, Cocklebur (cocklebur; [2]): 0
Cocklebur plant response rating (cocklebur; [3]): 0
Cocklebur plant response rating (0 to 10 scale) (cocklebur; Preemergence, Rate 125 g/ha): 0
Cocklebur plant response rating (cocklebur; [4]): 0
Cocklebur plant response rating (cocklebur; [5]): 0
Plant response rating, Cocklebur (cocklebur; [6]): 0
Plant response rating, Cocklebur (cocklebur; [7]): 0
Plant response rating, Velvetleaf (velvetleaf; [1]): 0
Plant response rating, Velvetleaf (velvetleaf; [2]): 0
Velvetleaf plant response rating (velvetleaf; [3]): 0
Velvetleaf plant response rating (0 to 10 scale) (velvetleaf; Preemergence, Rate 125 g/ha): 0
Velvetleaf plant response rating (velvetleaf; [4]): 0
Velvetleaf plant response rating (velvetleaf; [5]): 0
Plant response rating, Velvetleaf (velvetleaf; [6]): 0
Plant response rating, Velvetleaf (velvetleaf; [7]): 0
Plant response rating, Rape (rape; [1]): 0
Plant response rating, Rape (rape; [2]): 0
Rape plant response rating (rape; [3]): 0
Rape plant response rating (0 to 10 scale) (rape; Preemergence, Rate 125 g/ha): 0
Rape plant response rating (rape; [4]): 0
Rape plant response rating (rape; [5]): 0
Plant response rating, Rape (rape; [6]): 0
Plant response rating, Rape (rape; [7]): 0
Plant response rating, Redroot pigweed (pigweed; [1]): 0
Plant response rating, Redroot pigweed (pigweed; [2]): 0
Redroot pigweed plant response rating (pigweed; [3]): 0
Redroot pigweed plant response rating (0 to 10 scale) (pigweed; Preemergence, Rate 125 g/ha): 0
Redroot pigweed plant response rating (pigweed; [4]): 0
Redroot pigweed plant response rating (pigweed; [5]): 0
Plant response rating, Redroot pigweed (pigweed; [6]): 0
Plant response rating, Redroot pigweed (pigweed; [7]): 0
Plant response rating, Blackgrass (blackgrass; [1]): 0
Plant response rating, Blackgrass (blackgrass; [2]): 0
Blackgrass plant response rating (blackgrass; [3]): 0
Blackgrass plant response rating (0 to 10 scale) (blackgrass; Preemergence, Rate 125 g/ha): 0
Blackgrass plant response rating (blackgrass; [4]): 0
Blackgrass plant response rating (blackgrass; [5]): 0
Plant response rating, Blackgrass (blackgrass; [6]): 0
Plant response rating, Blackgrass (blackgrass; [7]): 0
Plant response rating, B. signalgrass (surinam grass; [1]): 0
Plant response rating, B. signalgrass (surinam grass; [2]): 0
B. signalgrass plant response rating (surinam grass; [3]): 0
B. signalgrass plant response rating (0 to 10 scale, 0 is no effect, 10 is complete control) (surinam grass; Preemergence, Rate 125 g/ha): 0
B. signalgrass plant response rating (surinam grass; [4]): 0
B. signalgrass plant response rating (surinam grass; [5]): 0
Plant response rating, B. signalgrass (surinam grass; [6]): 0
Plant response rating, B. signalgrass (surinam grass; [7]): 0
Plant response rating, Giant foxtail (giant foxtail; [1]): 0
Plant response rating, Giant foxtail (giant foxtail; [2]): 0
Giant foxtail plant response rating (giant foxtail; [3]): 0
Giant foxtail plant response rating (0 to 10 scale) (giant foxtail; Preemergence, Rate 125 g/ha): 0
Giant foxtail plant response rating (giant foxtail; [4]): 0
Giant foxtail plant response rating (giant foxtail; [5]): 3
Plant response rating, Giant foxtail (giant foxtail; [6]): 0
Plant response rating, Giant foxtail (giant foxtail; [7]): 9
Plant response rating, Morningglory (morningglory; [1]): 0
Plant response rating, Morningglory (morningglory; [2]): 0
Morningglory plant response rating (morningglory; [3]): 0
Morningglory plant response rating (0 to 10 scale) (morningglory; Preemergence, Rate 125 g/ha): 0
Morningglory plant response rating (morningglory; [4]): 0
Morningglory plant response rating (morningglory; [5]): 0
Plant response rating, Morningglory (morningglory; [6]): 0
Plant response rating, Morningglory (morningglory; [7]): 0
Ducksalad plant response rating (duck salad; [8]): 0
Ducksalad plant response rating (duck salad; [9]): 0
Ducksalad plant response rating (duck salad; [10]): 0
Ducksalad plant response rating (duck salad; [11]): 0
Plant response rating, Sugarbeets (sugar beet; [1]): 0
Plant response rating, Sugarbeets (sugar beet; [2]): 0
Sugarbeets plant response rating (sugar beet; [3]): 0
Sugarbeets plant response rating (0 to 10 scale) (sugar beet; Preemergence, Rate 125 g/ha): 0
Sugarbeets plant response rating (sugar beet; [4]): 0
Sugarbeets plant response rating (sugar beet; [5]): 0
Plant response rating, Sugarbeets (sugar beet; [6]): 0
Plant response rating, Sugarbeets (sugar beet; [7]): 0
Plant response rating, Nutsedge (purple nutsedge; [1]): 0
Plant response rating, Nutsedge (purple nutsedge; [2]): 0
Nutsedge plant response rating (purple nutsedge; [3]): 0
Nutsedge plant response rating (purple nutsedge; [4]): 0
Nutsedge plant response rating (purple nutsedge; [5]): 0
Plant response rating, Nutsedge (purple nutsedge; [6]): 0
Plant response rating, Nutsedge (purple nutsedge; [7]): 0
Plant response rating, Crabgrass (crabgrass; [1]): 0
Plant response rating, Crabgrass (crabgrass; [2]): 0
Crabgrass plant response rating (crabgrass; [3]): 0
Crabgrass plant response rating (0 to 10 scale) (crabgrass; Preemergence, Rate 125 g/ha): 0
Crabgrass plant response rating (crabgrass; [4]): 0
Crabgrass plant response rating (crabgrass; [5]): 4
Plant response rating, Crabgrass (crabgrass; [6]): 0
Plant response rating, Crabgrass (crabgrass; [7]): 8
Plant response rating, Wheat (wheat; [1]): 0
Plant response rating, Wheat (wheat; [2]): 0
Wheat plant response rating (wheat; [3]): 0
Wheat plant response rating (0 to 10 scale) (wheat; Preemergence, Rate 125 g/ha): 0
Wheat plant response rating (wheat; [4]): 0
Wheat plant response rating (wheat; [5]): 0
Plant response rating, Wheat (wheat; [6]): 0
Plant response rating, Wheat (wheat; [7]): 0
